Entries after “also recorded” stand apart in the source; their conditions may differ. Like-named read-outs stand apart in the source and are kept apart here. Residues, ends and D or L forms follow the SMILES beside them. *: point of attachment. Cbz = O=C(OCc1ccccc1)*; CH2F = FC*
Key:
HT29 cells [1] = test: Luminescence-based caspase activity assay (Caspase Glo3/7), apoptosis; type: cell-based; conditions: for induction of apoptosis: TH-302 0-10 μM air, 0-1 μM N2, AZD7762 0.1 μM, 2 hr + 46 hr
Description: Induction of apoptosis was also assessed. HT29 cells were seeded at a density of 40,000 cells per well of a 24 well plate. […] A luminescence-based caspase activity assay was performed. […] To validate the specificity of apoptotic signal, the pan-caspase inhibitor ZVAD was included in the testing.

H460 cells = test: 3-day in vitro proliferation assay, AlamarBlue, H460 cells; type: cell-based; conditions: for anti cancer efficacy in combination with TH-302: H460 non-small cell lung cell line; for change of activity by the presence of Chk1 inhibitors: H460, p53 wild type
Description: (§1) After a wash to remove drugs, cells were incubated with fresh media at 37° C. for an additional 3 days in the presence of a Chk1 inhibitor. Cell viability was determined using AlamarBlue. For a doxorubicin group (doxorubicin also induces cell cycle arrest in the G2/M phase and was used as a non-hypoxia activated prodrug control), cells were co-treated with doxorubicin and Chk1 inhibitors for 3 days.

γH2AX = γH2AX immunofluorescence (DNA damage response); type: cell-based; conditions: p53−/− HT29 cells; 2 hr normoxic or hypoxic, then 4 hr; AZD7762 0.1 μM
Description: HT29 cells were permeabilized with 1% Triton X-100 and incubated with γH2AX monoclonal antibody for 2 hr and goat anti-mouse-FITC for 1 hr. Cells were imaged using a fluorescent microscope (Nikon TS-100).

HT-29 tumor = test: HT29 xenograft antitumor activity; type: in vivo; conditions: HT-29 tumor-bearing mice, i.p., drug alone (TH-302 50 mg/kg QD×5/wk×2 wks or 100 mg/kg twice/wk×2 wks; AZD7762 12.5 mg/kg)
HT29 cells [2] = test: 3-day in vitro proliferation assay, AlamarBlue, HT29 cells; type: cell-based; conditions: for anti cancer efficacy in combination with TH-302: HT-29 colon cell line
Description: as §1

Chk2 = Chk2 (Homo sapiens, UniProt O96017); conditions: read-out: IC50 for Chk2; cited from earlier work
Sequence of Chk2 (O96017 whole entry): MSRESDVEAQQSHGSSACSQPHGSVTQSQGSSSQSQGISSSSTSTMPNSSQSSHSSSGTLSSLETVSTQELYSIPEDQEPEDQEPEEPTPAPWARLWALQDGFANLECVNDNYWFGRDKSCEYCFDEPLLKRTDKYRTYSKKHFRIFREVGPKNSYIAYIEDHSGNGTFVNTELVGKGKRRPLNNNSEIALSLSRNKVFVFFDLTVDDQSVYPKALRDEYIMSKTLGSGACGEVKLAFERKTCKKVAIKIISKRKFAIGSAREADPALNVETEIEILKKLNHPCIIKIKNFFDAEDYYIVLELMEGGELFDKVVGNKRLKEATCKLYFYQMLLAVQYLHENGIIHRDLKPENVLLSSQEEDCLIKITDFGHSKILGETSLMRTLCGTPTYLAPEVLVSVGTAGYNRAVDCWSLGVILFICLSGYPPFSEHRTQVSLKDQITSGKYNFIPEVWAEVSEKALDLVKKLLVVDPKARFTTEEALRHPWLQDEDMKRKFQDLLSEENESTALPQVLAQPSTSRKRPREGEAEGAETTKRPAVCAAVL

Hela cells [3] = test: 3-day in vitro proliferation assay, AlamarBlue, Hela cells; type: cell-based; conditions: for anti cancer efficacy in combination with TH-302: HeLa cervical cell line
Description: as §1

p53 proficient cells = test: Proliferation assay in p53 proficient cells (Horizon Discovery); type: cell-based
Description: as §1
(§2) Cells (provided by Horizon Discovery Ltd. and generated using Horizon's adeno-associated virus (AAV) technology Genesis™) were treated as described in Example 1.

Hela cells [4] = test: Cell cycle distribution by flow cytometry; type: cell-based
Description: (§3) HeLa cells were treated with TH-302 and a Chk1 inhibitor as described in Example 1. Cells were harvested and analyzed for cell cycle distribution by flow cytometry and for protein expression by immunoblot.

Cdc2-Y15 phosphorylation = test: Immunoblot of Cdc2-Y15 phosphorylation and protein expression; type: cell-based; conditions: for Cdc2-Y15 phosphorylation / DNA damaging agent-induced increase of Cdc2-Y15 phosphorylation in the presence of the Chk1 inhibitor: HeLa; for Cdc2-Y15 phosphorylation: agent alone; for DNA damaging agent-induced increase of Cdc2-Y15 phosphorylation in the presence of the Chk1 inhibitor: with Chk1 inhibitor
Description: as §3

AA8 CHO cells = test: Cytotoxicity in HDR proficient AA8 CHO cells; type: cell-based; conditions: Cricetulus griseus
Description: as §1
(§4) To investigate which DNA repair system is affected by Chk-1 inhibitor-mediated enhancement of TH-302 cytotoxicity, CHO cell-based DNA repair mutant cell line pairs were utilized. The experimental details were as described in Example 1. […] HDR (homology-dependent repair) is the specific type of DNA repair capable of repairing TH-302-induced DNA damage.

Du145 cells = test: 3-day in vitro proliferation assay, AlamarBlue, Du145 cells; type: cell-based; conditions: Du145, p53 heterozygous
Description: as §1
Appropriate Du145 and H460 cells were treated with TH-302 and Chk1 inhibitors as described in Example 1.

Rad51 = test: Immunoblot of Rad51 expression; type: cell-based; conditions: HT29; samples as for the Histone H3 blot
Description: To explore involved signaling pathways, an immunoblot analysis was conducted. HT29 cells were seeded in p60 dishes at a density of 2×10^6 cells per dish and incubated overnight for cell attachment. […] Insoluble debris was pelleted and the protein concentration of the resulting supernatant determined using a Sigma BCA kit (St. Louis, Mo.). About 10 μg of protein from each sample were loaded onto and SDS gel and electrophoresed and then electrotransferred to a nitrocellulose membrane. Proteins were detected with an electrochemiluminescent detection system (ChemiGlow; Protein Simple, Santa Clara, Calif.) using antibodies recognizing Histone H3.
The samples were collected as described above for the Histone H3 blot. In response to TH-302, Rad51 expression levels were increased.

irs1SF = test: Cytotoxicity in HDR deficient irs1SF cells; type: cell-based
Description: as §1, §4

p53 deficient cells = test: Proliferation assay in p53 deficient cells (Horizon Discovery); type: cell-based
Description: as §1, §2

UV41 = test: Cytotoxicity in HDR deficient UV41 cells; type: cell-based
Description: as §1, §4

In the case of `NC(=O)Nc1cc(-c2cccc(F)c2)sc1C(=O)N[C@H]1CCCNC1` [AZD7762], the induction of apoptosis (HT29 cells [1]) is reported as “slight increase”, the “anti cancer efficacy in combination with TH-302” value (shortened to “anti cancer efficacy”) (H460 cells) is reported as “not” and the γH2AX staining (γH2AX) is reported as “could induce γH2AX”. The tumor growth (HT-29 tumor) was “produced a growth delay”, the “anti cancer efficacy” value (HT29 cells [2]) was “increased anti cancer efficacy” and the IC50 (Chk2) was under 0.01 µM. For the same compound, the “anti cancer efficacy” value (Hela cells [3]) was “increased anti cancer efficacy”.

For `Cc1cnc(NC(=O)Nc2cc(Br)c(C)cc2OC[C@@H]2CNCCO2)cn1` [LY2603618], the “anti cancer efficacy” value (H460 cells) was “not”, the “anti cancer efficacy” value (HT29 cells [2]) was “increased anti cancer efficacy” and the “anti cancer efficacy” value (Hela cells [3]) was “increased anti cancer efficacy”.

With `Cn1c(COP(=O)(NCCBr)NCCBr)cnc1[N+](=O)[O-]` [TH-302] the induction of apoptosis (HT29 cells [1]) was “did not induce apoptosis”, the “change of activity by co-treatment with a Chk1 inhibitor” value (p53 proficient cells) was “not” and the cell cycle arrest (Hela cells [4]; agent alone) was “concentration-dependent cell cycle arrest at G2/M”. The “TH-302-mediated G2/M arrest in the presence of the Chk1 inhibitor” value (Hela cells [4]; with Chk1 inhibitor) was “abrogated”, the “expression of Cdc-2, Myt1 and Chk1” value (Cdc2-Y15 phosphorylation) was “does not affect” and the Cdc2-Y15 phosphorylation (Cdc2-Y15 phosphorylation) was “upregulate phosphorylation of Cdc2-Y15”. For the same compound, the “DNA damaging agent-induced increase of Cdc2-Y15 phosphorylation in the presence of the Chk1 inhibitor” value (Cdc2-Y15 phosphorylation) was “completely eliminated”, the “change of activity by the presence of Chk1 inhibitors” value (“change … of Chk1 inhibitors” below) (H460 cells) was “not enhanced; also recorded: not affected” and the IC50 (AA8 CHO cells; AA8, N2, read-out: IC50 of TH-302 monotherapy) was 3.2 µM. The IC50 (AA8 CHO cells; AA8, N2, with AZD7762 (0.1 μM), read-out: TH-302 IC50) was 1.2 µM, the IC50 (AA8 CHO cells; AA8, air, read-out: IC50 of TH-302 monotherapy) was 490 µM and the IC50 (AA8 CHO cells; AA8, air, with AZD7762 (0.1 μM), read-out: TH-302 IC50) was 260 µM. For the same compound, the “change … of Chk1 inhibitors” value (Du145 cells) was “not enhanced”, the Rad51 expression levels (Rad51) was “increased” and the γH2AX staining (γH2AX) was “could induce γH2AX”. The tumor growth (HT-29 tumor) was “produced a growth delay”, the “enhancement of TH-302 activity by the presence of a Chk1 inhibitor” value (HT29 cells [2]; HT29, p53-deficient, any one of PF477736, AZD7762, LY2603618) was 15 to 50 fold and the “change … of Chk1 inhibitors” value (HT29 cells [2]; HT29, 0.4 μM PF477736, 0.1 μM AZD7762 or 0.5 μM LY2603618, normoxia or hypoxia) was “significantly enhanced”. The IC50 (irs1SF; N2, read-out: IC50 of TH-302 monotherapy) was 0.4 µM, the IC50 (irs1SF; N2, with AZD7762 (0.1 μM), read-out: TH-302 IC50) was 0.3 µM and the IC50 (irs1SF; air, read-out: IC50 of TH-302 monotherapy) was 54 µM. For the same compound, the IC50 (irs1SF; air, with AZD7762 (0.1 μM), read-out: TH-302 IC50) was 63 µM, the “enhancement of TH-302 activity by the presence of a Chk1 inhibitor” value (Hela cells [3]; Hela, p53-deficient, any one of PF477736, AZD7762, LY2603618) was 15 to 50 fold and the “change … of Chk1 inhibitors” value (Hela cells [3]; Hela, 0.4 μM PF477736, 0.1 μM AZD7762 or 0.5 μM LY2603618, normoxia or hypoxia) was “significantly enhanced”. For the same compound, the “change of activity by co-treatment with a Chk1 inhibitor” value (p53 deficient cells) was “significantly enhanced”, the IC50 (UV41; UV41, N2, with AZD7762 (0.1 μM), read-out: TH-302 IC50) was 0.06 µM and the IC50 (UV41; UV41, N2, read-out: IC50 of TH-302 monotherapy) was 0.07 µM. For the same compound, the IC50 (UV41; UV41, air, with AZD7762 (0.1 μM), read-out: TH-302 IC50) was 26 µM and the IC50 (UV41; UV41, air, read-out: IC50 of TH-302 monotherapy) was 29 µM.

In the case of `CC(NC(=O)C(NC(=O)OCc1ccccc1)C(C)C)C(=O)NC(CC(=O)O)C(=O)CF` (stereo not drawn) [ZVAD] (Cbz-Val-Ala-Asp-CH2F; configuration not given here), the “apoptotic signal generated by the combination therapy” value (HT29 cells [1]; added to TH-302 and AZD7762) is reported as “reduced the apoptotic signal”.

For `COc1cccc2c1C(=O)c1c(O)c3c(c(O)c1C2=O)C[C@@](O)(C(=O)CO)C[C@@H]3O[C@H]1C[C@H](N)[C@H](O)[C@H](C)O1` [doxorubicin, reference compound], the Cdc2-Y15 phosphorylation (Cdc2-Y15 phosphorylation) was “upregulate phosphorylation of Cdc2-Y15”, the “DNA damaging agent-induced increase of Cdc2-Y15 phosphorylation in the presence of the Chk1 inhibitor” value (Cdc2-Y15 phosphorylation) was “completely eliminated” and the “change … of Chk1 inhibitors” value (H460 cells) was “lack of enhanced activity”. For the same compound, the “change … of Chk1 inhibitors” value (Du145 cells) was “lack of enhanced activity”.

With PF477736 the “anti cancer efficacy” value (H460 cells) was “not”, the “anti cancer efficacy” value (HT29 cells [2]) was “increased anti cancer efficacy” and the “anti cancer efficacy” value (Hela cells [3]) was “increased anti cancer efficacy”.

Reference: US9254299B2, “Administration of hypoxia activated prodrugs in combination with Chk1 inhibitors for treating cancer” (THRESHOLD PHARMACEUTICALS, INC., priority 2011, dated 2016)
